In publication PMC12260535, “A novel thiazole-sulfonamide hybrid molecule as a promising dual tubulin/carbonic anhydrase IX inhibitor with anticancer activity” (Frontiers in Chemistry, 2025):
Read-outs that look alike come from different tables or passages of the source.

Experiments:
[1] = tested on: A549 (lung carcinoma) cells; assay: MTT antiproliferative assay, A549; format: cell-based; details: Homo sapiens, read-out: IC50 A549
Protocol: (§1) . All cell lines were obtained from the Vacsera Cell Culture Library, Tissue Culture Unit, Cairo, Egypt, with ATCC certification. […] Check Appendix A for additional information.
(§2) . Cells were cultured in their respective recommended media supplemented with 10% fetal bovine serum and 1% penicillin-streptomycin and maintained at 37 °C in a humidified atmosphere containing 5% CO₂. Cell viability was assessed using the MTT assay, following the protocol provided with the In Vitro Toxicology Assay Kit, MTT Based (Sigma-Aldrich, TOX-1). Briefly, cells were seeded in 96-well plates at a density of 5 × 10³ cells/well and allowed to adhere overnight. […] Subsequently, 10 µL of reconstituted MTT solution (5 mg/mL in serum-free, phenol red-free medium) was added to each well and incubated for 3 h at 37 °C. The resulting formazan crystals were dissolved by adding 100 µL of the MTT Solubilization Solution, and the plates were gently shaken to ensure complete solubilization. Absorbance was recorded at 570 nm with a reference wavelength of 690 nm using a microplate reader. Cell viability was expressed as a percentage relative to untreated control cells. All experiments were conducted in triplicate, and IC₅₀ values were determined using linear regression analysis.

CA XII = CA XII (Homo sapiens, UniProt O43570); assay: Carbonic anhydrase inhibitor screening kit (colorimetric), CA XII
CA XII, sequence (O43570 25-354): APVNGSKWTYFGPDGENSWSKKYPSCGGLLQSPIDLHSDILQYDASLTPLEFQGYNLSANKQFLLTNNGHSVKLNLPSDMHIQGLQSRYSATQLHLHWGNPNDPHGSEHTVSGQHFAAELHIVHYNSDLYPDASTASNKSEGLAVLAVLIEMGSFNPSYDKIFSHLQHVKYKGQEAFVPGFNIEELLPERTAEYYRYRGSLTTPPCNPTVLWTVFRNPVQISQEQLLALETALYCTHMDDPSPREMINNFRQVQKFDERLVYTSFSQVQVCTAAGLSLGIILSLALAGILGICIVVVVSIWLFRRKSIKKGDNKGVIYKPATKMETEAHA

CA IX [2] = target: CA IX (Homo sapiens, UniProt Q16790); assay: Carbonic anhydrase inhibitor screening kit (colorimetric), CA IX
caspase-9 = assay: Caspase-9 ELISA in HT-29 cells; format: cell-based, human
Text: This assay employs a sandwich ELISA format, utilizing a specific capture antibody and an HRP-conjugated detection system, with absorbance measured at 450 nm. A detailed methodology is provided in Appendix A (Supplementary Material).
This solid-phase sandwich ELISA employs a monoclonal antibody pre-coated on a 96-well microplate to capture caspase-9 from samples. A rabbit polyclonal detection antibody specific to human caspase-9 is subsequently added, followed by an HRP-conjugated anti-rabbit IgG and TMB substrate for colorimetric detection. The intensity of the yellow product formed after stopping the reaction with phosphoric acid is proportional to the amount of caspase-9 present and is measured at 450 nm. […] Lysates were centrifuged at 1,000 × g for 15 minutes, and the clear supernatants were collected and either analyzed immediately or stored at –80 °C. […] Standard concentrations of 1.6, 3.1, 6.3, 12.5, 25, 50, and 100 ng/mL yielded OD values of 0.140, 0.167, 0.213, 0.239, 0.501, 0.799, and 1.639 respectively, with a blank reading of 0.042. Net OD values were calculated by subtracting the blank absorbance, and the standard curve was constructed accordingly. The concentration of caspase-9 in each sample was determined using linear regression analysis, and final values were adjusted by the dilution factor.

Bax = Bax ELISA in HT-29 cells; format: cell-based, human
Protocol: Changes in Bax levels were quantified in treated cell lysates to assess the apoptotic response. Comprehensive assay details are available in Appendix A (Supplementary Material).
This sandwich-based immunoassay utilizes a monoclonal antibody specific for human BAX-α to capture and quantify the protein in cell lysates. Cells were lysed using the provided Cell Lysis Buffer, freshly supplemented with phenylmethylsulfonyl fluoride (PMSF, 1 mM) and protease inhibitor cocktail (PIC, 0.5 µL/mL). Lysates were incubated on ice, vortexed, and centrifuged at 16,000 rpm for 15 minutes at 4 °C. The supernatants were collected and diluted with the kit's Assay Buffer. A standard curve was generated using BAX-α standards with concentrations of 62.5, 125, 250, 500, 1000, and 2000 ng/mL. The corresponding net absorbance values (after subtracting the average blank OD of 0.023) were 0.110, 0.192, 0.338, 0.781, 1.443, and 2.496, respectively. Absorbance was measured at 450 nm with a reference wavelength of 570–590 nm. BAX concentrations in the samples were calculated using linear regression analysis based on the standard curve obtained. The assay provided a sensitive and quantitative measure of BAX modulation in response to compound 7.

[3] = tested on: 786-O (renal carcinoma) cells; assay: MTT antiproliferative assay, 786-O; format: cell-based; details: Homo sapiens, read-out: IC50 786-O
Protocol: (§3) All cell lines were obtained from the Vacsera Cell Culture Library, Tissue Culture Unit, Cairo, Egypt, with ATCC certification. The assay enabled the detection of membrane-compromised cells based on the fluorescence intensity of DNA binding. Check Appendix A for additional information.
as §2, with “Cells” for “. Cells”

caspase-3 = assay: Active caspase-3 ELISA in HT-29 cells; format: cell-based, human
Text: This sandwich ELISA detects caspase-3 cleaved at Asp175/Ser176, enabling sensitive colorimetric measurement at 450 nm. Additional procedural details are provided in Appendix A (Supplementary Material).
This assay is based on a solid-phase sandwich ELISA principle, where an anti-human caspase-3 monoclonal antibody is pre-coated onto a microplate. Cell lysates or standards are captured by this antibody, followed by the addition of a rabbit polyclonal detection antibody specific for active caspase-3 cleaved at Asp175/Ser176. Detection is then performed using HRP-conjugated anti-rabbit IgG and TMB substrate. Cell lysates were prepared in protease inhibitor-supplemented cell extraction buffer and clarified by centrifugation. Samples were diluted in Standard Diluent Buffer and added to the wells along with a standard curve of human active caspase-3. The standard concentrations included 39, 78, 156, 313, 625, 1250, and 2500 ng/mL, which yielded optical density (OD) readings ranging from 0.192 to 2.733. A blank reading of 0.018 was subtracted from each standard OD, and the resulting data were used to generate a standard curve. […] After color development, the reaction was stopped with acid, and absorbance was read at 450 nm. The concentration of active caspase-3 in treated samples was determined using linear regression analysis of the standard curve. […]

CA I = CA I (Homo sapiens, UniProt P00915); assay: Carbonic anhydrase inhibitor screening kit (colorimetric), CA I
CA I, sequence (P00915 whole entry): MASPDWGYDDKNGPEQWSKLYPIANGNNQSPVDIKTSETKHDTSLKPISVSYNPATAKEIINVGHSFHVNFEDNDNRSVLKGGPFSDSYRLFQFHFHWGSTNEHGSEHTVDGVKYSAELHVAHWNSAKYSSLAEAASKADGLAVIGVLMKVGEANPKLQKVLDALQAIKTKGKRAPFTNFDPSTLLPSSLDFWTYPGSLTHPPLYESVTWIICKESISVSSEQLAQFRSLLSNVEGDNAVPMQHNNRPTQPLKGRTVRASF

CA II = CA II (Homo sapiens, UniProt P00918); assay: Carbonic anhydrase inhibitor screening kit (colorimetric), CA II
p53 = p53 ELISA in HT-29 cells; format: cell-based, human
[4] = tested on: MCF-7 (breast adenocarcinoma) cells; assay: MTT antiproliferative assay, MCF-7; format: cell-based; details: Homo sapiens, read-out: IC50 MCF-7
Protocol: as §1, §2

Bcl-2 = Bcl-2 ELISA in HT-29 cells; format: cell-based, human
Protocol: Absorbance was measured at 450 nm to determine changes in Bcl-2 expression in response to treatment. A full description of the assay protocol is included in Appendix A (Supplementary Material).
The assay is based on a sandwich ELISA format, where human Bcl-2 is captured by a monoclonal antibody coated on a microwell plate and detected using a biotin-conjugated anti-Bcl-2 antibody followed by Streptavidin-HRP and TMB substrate. Cells were lysed using the supplied Lysis Buffer at a concentration of 5 × 10⁶ cells/mL and incubated for 1 hour at room temperature with gentle shaking. Lysates were clarified by centrifugation at 1000 × g for 15 minutes, and the supernatants were collected for immediate use or stored at –80 °C. For the assay, 20 µL of sample was added to wells along with 80 µL of Sample Diluent, followed by 50 µL of diluted biotin-conjugate. After a 2-hour incubation at room temperature, plates were washed and incubated with diluted Streptavidin-HRP for 1 hour. […] Absorbance was measured at 450 nm with optional correction between 610–650 nm. […] The corresponding absorbance values ranged from approximately 0.121 to 2.461, with a background (blank) absorbance of 0.023. Net absorbance values were calculated by subtracting the blank from each standard, and the resulting data were used to construct a calibration curve. […]

CA IX [5] = details: cited from earlier work
tubulin = details: read-out: tubulin polymerization IC50, cited from earlier work
[6] = tested on: WI-38 normal lung fibroblast cells; assay: MTT cytotoxicity assay, normal WI-38 fibroblasts; format: cell-based; details: Homo sapiens, 48 h, WI-38 normal fibroblasts
Protocol: as §3
as §2, with “Cells” for “. Cells”

[7] = tested on: HT-29 (colon adenocarcinoma) cells; assay: MTT antiproliferative assay, HT-29; format: cell-based; details: Homo sapiens, 48 h, HT-29 colorectal cancer cells
Protocol: as §3
as §2, with “Cells” for “. Cells”

Compound: Cc1[nH]c(=S)sc1C(=O)/C=C/c1ccc(S(N)(=O)=O)cc1 [Compound 7, (E)-4-(3-(4-methyl-2-thioxo-2,3-dihydrothiazol-5-yl)-3-oxoprop-1-en-1-yl)benzenesulfonamide]
- IC50 ([1]; A549, 48 h): 6820 nM
- IC50 (CA XII): 114 ± 12 nM
- IC50 (CA IX [2]): 21 ± 4 nM
- Caspase-9 Conc (caspase-9; ELISA, DMSO control 5.09 ± 0.26): 49.39 ± 1.13 ng/mL
- Caspase-9 Fold change (caspase-9; versus DMSO control): 9.70
- Bax Conc (Bax; ELISA, DMSO control 68.50 ± 1.67): 392.25 ± 14.58 pg/mL
- Bax Fold change (Bax; versus DMSO control): 5.73
- IC50 ([3]; 786-0, 48 h): 1560 nM
- Caspase 3 Conc (caspase-3; ELISA, DMSO control 57.64 ± 1.36): 511.27 ± 13.18 pg/mL
- Caspase 3 Fold change (caspase-3; versus DMSO control): 8.87
- IC50 (CA I): 1900 ± 250 nM
- IC50 (CA II): 381 ± 45 nM
- P53 Conc (p53; ELISA, DMSO control 150.66 ± 3.33): 1,224.00 ± 6.67 pg/mL
- P53 Fold change (p53; versus DMSO control): 8.12
- IC50 ([4]; MCF7, 48 h): 3630 nM
- Bcl-2 Conc (Bcl-2; ELISA, DMSO control 19.25 ± 0.43): 6.212 ± 0.093 pg/mL
- Bcl-2 Fold change (Bcl-2; versus DMSO control): 0.323

Compound: COc1cc(/C=C/C(=O)c2nnn(-c3ccc(S(N)(=O)=O)cc3)c2C)cc(OC)c1OC [compound V]
- Ki (CA IX [5]; ref Abdelhakeem et al., 2024): 30 nM

Compound: COc1cc(-c2csc(NC(=O)CNc3ccc([N+](=O)[O-])cc3)n2)cc(OC)c1OC [compound VIII]
- IC50 (tubulin; ref El-Abd et al., 2022): 2000 nM

Compound: CCOc1ccc(-c2sc(N)nc2-c2ccc(OC)c3ccccc23)cc1 [compound VI]
- IC50 (tubulin; ref Wang et al., 2021): 3300 nM

Compound: COc1ccc2[nH]cc(/C=N/Nc3nc(-c4cccc(Br)c4)cs3)c2c1 [Compound VII]
- IC50 (tubulin; ref Wang et al., 2024): 1680 nM

Compound: NS(=O)(=O)c1ccc(NC(=O)Nc2cc3cc(Br)ccc3o2)cc1 [Compound II]
- Ki (CA IX [5]; ref Shaldam et al., 2021): 5.5 nM

Compound: COc1ccc(/C=C\c2cc(OC)c(OC)c(OC)c2)cc1O [CA-4, combretastatin A-4, reference compound]
- IC50 ([1]; MTT assay, 48 h, A549 lung cancer cells): 440 nM
- IC50 ([3]; 786-0, MTT assay, 48 h, 786-O renal cancer cells): 3270 nM
- IC50 ([4]; MCF7, MTT assay, 48 h, MCF-7 breast cancer cells): 1820 nM
- IC50 [6]: 28100 nM
- IC50 [7]: 2150 nM
